Consider 16 compounds from ChEMBL document CHEMBL4396967, “In vitro cytotoxicity screening to identify novel anti-osteosarcoma therapeutics targeting pyruvate dehydrogenase kinase 2” (Bioorg Med Chem Lett, 2019).

The inhibition is the share of the control response that was lost under treatment. As usually defined, the IC50 is the concentration that inhibits the measured activity by half. Broadly, the EC50 is the concentration that produces a half-maximal response. What is called Kd is the constant that tells how readily two partners part at equilibrium.

The test system of assay [1] is MG-63. In words: Antiproliferative activity against human MG63 cells assessed as reduction in cell viability at 10 uM incubated for 72 hrs by MTT assay relative to control. The assay is classed as functional. To be noted: MG-63, 72 h. (Tetrazolium assays rely on reduction of a dye to a coloured formazan, in cell work by metabolically active cells.)
For assay [2], the system named is MG-63. In words: Antiproliferative activity against human MG63 cells assessed as reduction in cell viability incubated for 72 hrs by MTT assay. The assay is classed as functional, cell-based. To be noted: MG-63, 72 h.
The test system of assay [3] is SAOS-2. Nature of the assay: Antiproliferative activity against human Saos2 cells assessed as reduction in cell viability at 10 uM incubated for 72 hrs by MTT assay relative to control. The conditions noted are these: SAOS-2, 72 h. It is filed as functional.
The test system of assay [4] is SAOS-2. In words: Antiproliferative activity against human Saos2 cells assessed as reduction in cell viability incubated for 72 hrs by MTT assay. To be noted: SAOS-2, 72 h. It is filed as functional, cell-based.
The target of assay [5] is T1, [Pyruvate dehydrogenase (acetyl-transferring)] kinase isozyme 2, mitochondrial (Homo sapiens, UniProt Q15119). In words: Inhibition of PDK2 (unknown origin) using PDCE1 as substrate at 5 uM incubated for 30 mins by kinase-Glo reagent based luminescence assay relative to control.
The target in assay [6] is T1, [Pyruvate dehydrogenase (acetyl-transferring)] kinase isozyme 2, mitochondrial. Nature of the assay: Inhibition of PDK2 (unknown origin) using PDCE1 as substrate incubated for 30 mins by kinase-Glo reagent based luminescence assay. On the technique in general: Kinase-Glo reads ATP consumption through a luciferase reaction.
Assay [7] has the same target. In words: Binding affinity to PDK2 (unknown origin) assessed as dissociation constant by ITC analysis. For orientation: ITC needs no label: the signal is the heat of the interaction.
Assay [8] concerns the target [Pyruvate dehydrogenase (acetyl-transferring)] kinase isozyme 1, mitochondrial (Homo sapiens, UniProt Q15118). Nature of the assay: Inhibition of PDK1 (unknown origin) using PDCE1 as substrate incubated for 30 mins by kinase-Glo reagent based luminescence assay.
Assay [9] has as its target [Pyruvate dehydrogenase (acetyl-transferring)] kinase isozyme 3, mitochondrial (Homo sapiens, UniProt Q15120). In words: Inhibition of PDK3 (unknown origin) using PDCE1 as substrate incubated for 30 mins by kinase-Glo reagent based luminescence assay.
In assay [10] the target is [Pyruvate dehydrogenase (acetyl-transferring)] kinase isozyme 4, mitochondrial (Homo sapiens, UniProt Q16654). Nature of the assay: Inhibition of PDK4 (unknown origin) using PDCE1 as substrate incubated for 30 mins by kinase-Glo reagent based luminescence assay.
Chain of [Pyruvate dehydrogenase (acetyl-transferring)] kinase isozyme 4, mitochondrial (Q16654 whole entry): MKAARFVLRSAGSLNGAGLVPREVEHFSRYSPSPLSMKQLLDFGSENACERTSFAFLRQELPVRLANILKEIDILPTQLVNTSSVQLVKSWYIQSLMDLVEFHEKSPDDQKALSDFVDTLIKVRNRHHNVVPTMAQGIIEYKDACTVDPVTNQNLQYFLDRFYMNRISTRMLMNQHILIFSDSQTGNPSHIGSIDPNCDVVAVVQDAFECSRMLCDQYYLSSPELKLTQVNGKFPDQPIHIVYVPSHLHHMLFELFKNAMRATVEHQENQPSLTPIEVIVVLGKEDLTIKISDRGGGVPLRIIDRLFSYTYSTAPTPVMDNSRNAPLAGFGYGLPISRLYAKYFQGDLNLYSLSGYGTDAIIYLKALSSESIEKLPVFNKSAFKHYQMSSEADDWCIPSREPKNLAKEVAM
The species named for assay [11] is Homo sapiens. Nature of the assay: Selectivity index, ratio of EC50 of PDK1 (unknown origin) to EC50 of PDK2 (unknown origin).
The species entered for assay [12] is Homo sapiens. In words: Selectivity index, ratio of EC50 of PDK3 (unknown origin) to EC50 of PDK2 (unknown origin).
The species entered for assay [13] is Homo sapiens. In words: Selectivity index, ratio of EC50 of PDK4 (unknown origin) to EC50 of PDK2 (unknown origin).
The target of assay [14] is T1, [Pyruvate dehydrogenase (acetyl-transferring)] kinase isozyme 2, mitochondrial. Nature of the assay: Inhibition of PDK2 in human MG63 cells assessed as reduction in PDC phosphorylation at 2 or 5 uM incubated for 12 hrs by Western blot analysis. It is filed as cell-based.
Assay [15] has the same target. In words: Inhibition of PDK2 in human MG63 cells assessed as reduction in lactate formation at 2 to 10 uM incubated for 4 hrs. The assay is classed as cell-based.
Assay [16] has the same target. In words: Inhibition of recombinant human N-terminal His6-tagged SUMO-fused PDK2 expressed in Escherichia coli BL-21 cells preincubated for 15 mins followed by addition of [gamma33-ATP] and measured after 90 secs by Scintillation counting method.
The target is the same in assay [17]. In words: Inhibition of PDK2 (unknown origin).

Active and inactive are the calls of the source. The rule behind the calls is not given here.

Chain of [Pyruvate dehydrogenase (acetyl-transferring)] kinase isozyme 3, mitochondrial (Q15120 whole entry): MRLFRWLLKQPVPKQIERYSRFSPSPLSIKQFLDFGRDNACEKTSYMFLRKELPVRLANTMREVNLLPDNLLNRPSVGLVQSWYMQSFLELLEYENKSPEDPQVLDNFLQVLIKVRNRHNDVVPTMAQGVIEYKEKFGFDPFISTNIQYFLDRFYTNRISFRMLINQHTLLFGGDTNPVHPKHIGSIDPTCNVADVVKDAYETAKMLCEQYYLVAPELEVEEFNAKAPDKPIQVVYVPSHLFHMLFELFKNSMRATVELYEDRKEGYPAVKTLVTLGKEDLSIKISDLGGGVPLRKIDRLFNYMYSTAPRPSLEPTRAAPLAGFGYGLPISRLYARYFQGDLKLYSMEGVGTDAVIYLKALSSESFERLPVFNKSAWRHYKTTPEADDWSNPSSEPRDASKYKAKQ
Chain of [Pyruvate dehydrogenase (acetyl-transferring)] kinase isozyme 1, mitochondrial (Q15118 whole entry): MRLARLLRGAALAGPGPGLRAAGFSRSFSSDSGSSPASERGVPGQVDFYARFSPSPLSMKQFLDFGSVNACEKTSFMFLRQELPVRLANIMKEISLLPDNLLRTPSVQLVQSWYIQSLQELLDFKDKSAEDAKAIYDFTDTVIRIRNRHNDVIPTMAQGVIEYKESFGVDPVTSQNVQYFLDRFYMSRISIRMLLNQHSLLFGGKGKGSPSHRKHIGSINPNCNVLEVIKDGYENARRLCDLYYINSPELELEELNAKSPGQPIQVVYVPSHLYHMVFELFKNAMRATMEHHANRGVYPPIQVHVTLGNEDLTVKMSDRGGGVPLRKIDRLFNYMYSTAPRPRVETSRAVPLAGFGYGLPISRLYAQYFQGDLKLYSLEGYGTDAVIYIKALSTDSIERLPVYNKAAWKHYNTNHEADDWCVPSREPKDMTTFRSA

Take `CC(C)NC(=O)COc1coc(CN2CCN(c3ccccc3)CC2)cc1=O`: the inhibition at 10 µM is 70.6% with MG-63 [1] and 74.5% in the assay on SAOS-2 [3]. In addition, the IC50 stood at 5.8 µM with MG-63 [2] and 5.3 µM in the assay with SAOS-2 [4]. Also, the inhibition in assay [5] came to 64.3%. This compound came in with an EC50 in assay [6] of 3.8 µM.

Take `Cc1cc(N2CCCCC2)nc(CNC(=O)CNC(=O)c2ccccc2)n1`: the inhibition at 10 µM with MG-63 [1] stood at 88.5%; in the assay on SAOS-2 [3] it was 77.6%. The half-inhibitory concentration (IC50) with MG-63 [2] worked out at 2.7 µM; with SAOS-2 [4], 4.8 µM. Further, in assay [5], the inhibition worked out at 20.1%.

For `O=C(CCn1ccc(=O)[nH]c1=O)N1CCN(C2=CC3CCCCC3N=N2)CC1` (centres undefined), the values for the inhibition at 10 µM in the assay on MG-63 [1] and in the assay on SAOS-2 [3] were 84.4% and 86.7%, respectively. For the same compound, the half-inhibitory concentration (IC50) in the assay on MG-63 [2] is 2.1 µM; with SAOS-2 [4] it was 1.8 µM. In addition, in assay [5], the inhibition result was “inactive”.

`CN(C)c1cncc(OC2CCN(C(=O)Cc3c[nH]c4ccccc34)C2)n1` (centres undefined): the inhibition at 10 µM in the assay with MG-63 [1] came to 83.9%; in the assay with SAOS-2 [3] it was 87.7%. Moreover, the 50% inhibitory concentration (IC50) with MG-63 [2] was 2.8 µM; in the assay on SAOS-2 [4] it was 2.2 µM. Further, the inhibition entry in [5] was “inactive”.

On to `O=C(C1=C(CO)C(=O)N(CCCN2CCOCC2)[C@H]1c1ccncc1)c1cccs1`, for which the inhibition at 10 µM with MG-63 [1] is 86.9%; in the assay with SAOS-2 [3] it was 79.3%. In addition, the IC50 came to 1.2 µM in the assay on MG-63 [2] and 2 µM in the assay with SAOS-2 [4]. Besides, the inhibition entry in assay [5] is “inactive”.

In the case of `O=C(CCn1ccc(=O)[nH]c1=O)N1CCC(Cc2n[nH]c(=O)n2-c2ccccc2F)CC1`, the figures for the inhibition at 10 µM in the assay with MG-63 [1] and with SAOS-2 [3] were 62.7% and 48.9%, respectively. In addition, the figures for the half-maximal inhibitory concentration (IC50) in the assay on MG-63 [2] and with SAOS-2 [4] were 7.1 µM and greater than 10 µM, respectively. Further, in [5], the inhibition result is “inactive”.

With `CC(C)NC(=O)COc1coc(CN2CCN(c3ccccc3F)CC2)cc1=O`, the inhibition at 10 µM in the assay on MG-63 [1] turned out to be 78.6%; in the assay on SAOS-2 [3], 75.3%. Moreover, the half-inhibitory concentration (IC50) in the assay with MG-63 [2] was 4.7 µM; with SAOS-2 [4], 5.6 µM. Moreover, the inhibition in assay [5] stood at 79.7%. Besides, the EC50 in [6] came out at 1.1 µM; in assay [8] it was 11.7 µM; in [9], 24.5 µM; in assay [10], 67 µM. The dissociation constant (Kd) in [7] worked out at 2.35 µM. Also, the Ratio EC50 came out at 10.6 in the assay filed under Homo sapiens [11], 21.9 in the assay filed under Homo sapiens [12] and 60.9 in the assay listed under Homo sapiens [13]. For the same compound, the inhibition result in assay [14] and in assay [15] was “Active” each time.

As to `O=S(=O)(c1ccc(O)cc1O)N1Cc2cc(O)cc(O)c2C1`, the 50% effective concentration (EC50) in assay [16] was 0.456 µM.

For `CNC(=O)COc1coc(CN2CCN(c3ccccc3)CC2)cc1=O`, the inhibition at 10 µM in the assay on MG-63 [1] is 66.1%; in the assay on SAOS-2 [3], 71.2%. Also, the IC50 in the assay on MG-63 [2] is 7.9 µM; in the assay on SAOS-2 [4] it was 6.7 µM. The compound further returned an inhibition in assay [5] of 54.1%. Besides, in [6], the response was half-maximal at 5.2 µM (EC50).

Regarding `CN(C)C(=O)c1ccc(S(=O)(=O)c2ccc(NC(=O)[C@@](C)(O)C(F)(F)F)c(Cl)c2)cc1`, the 50% effective concentration (EC50) in assay [17] worked out at 0.08 µM.

For the compound `O=C(COc1coc(CN2CCN(c3cccc(Cl)c3)CC2)cc1=O)NC1CCCC1`, the inhibition at 10 µM in the assay with MG-63 [1] is 62.3%; with SAOS-2 [3] it was 65.3%. Further, the 50% inhibitory concentration (IC50) was 8.5 µM with MG-63 [2] and 7.7 µM in the assay with SAOS-2 [4]. Also, the inhibition in assay [5] was determined as 47.5%.

Consider `Cc1ccccc1OCC(O)Cn1c(C2CC(=O)N(C(C)(C)C)C2)nc2ccccc21` (centres undefined), for which the figures for the inhibition at 10 µM with MG-63 [1] and in the assay with SAOS-2 [3] were 72.8% and 59.3%, respectively. Besides, the IC50 came out at 7.7 µM in the assay on MG-63 [2] and 8.9 µM with SAOS-2 [4]. The inhibition entry in assay [5] is “inactive”.

On to `Cc1cc(=O)n2nc(N3CCN(C(=O)Cc4c[nH]c5ccccc45)CC3)nc2[nH]1`, for which the inhibition at 10 µM is 60.8% in the assay on MG-63 [1] and 75.9% in the assay on SAOS-2 [3]. The results for the half-inhibitory concentration (IC50) in the assay on MG-63 [2] and in the assay on SAOS-2 [4] were 9.4 µM and 7.6 µM, respectively. In addition, the inhibition result in assay [5] was “inactive”.

For the compound `CSc1nc(N2CCOCC2)c2cnn(CCNC(=O)C3CCCC3)c2n1`, the inhibition at 10 µM was determined as 53.3% in the assay with MG-63 [1] and 45.1% with SAOS-2 [3]. The IC50 with MG-63 [2] and with SAOS-2 [4] was greater than 10 µM each time. Further, in assay [5], the inhibition result was “inactive”.

Take `COc1cccc(C(=O)NCc2nc(N3CCCC3)nc(N3CCOCC3)n2)c1`: the inhibition at 10 µM with MG-63 [1] came out at 53.8%; in the assay with SAOS-2 [3] it was 68.5%. For the same compound, the results for the half-maximal inhibitory concentration (IC50) with MG-63 [2] and in the assay with SAOS-2 [4] were 9.2 µM and 8.1 µM, respectively. Moreover, the inhibition entry in [5] is “inactive”.

For `COc1ccc(N2CCn3c2nnc(C(=O)NCCCN(C)C)c3=O)cc1`, the inhibition at 10 µM with MG-63 [1] came to 71.1%; in the assay on SAOS-2 [3], 65.4%. The half-maximal inhibitory concentration (IC50) is 4.9 µM in the assay on MG-63 [2] and 7.9 µM in the assay on SAOS-2 [4]. In addition, the inhibition result in assay [5] is “inactive”.
